From patent US20220089638A1, “DITHIOCARBAMATE STAPLED PEPTIDES AND METHODS OF MAKING AND USE THEREOF” (UNIVERSITY OF MARYLAND, BALTIMORE, priority 2019, published 2022) come the findings set out here.

The nature of series [1]: Comparison of solubility between DTC and hydrocarbon link (OD 600 nm in PBS). It is filed as physicochemical. The following applies: PBS buffer, 2-fold serial dilution from 20 mg/ml, OD at 600 nm. As for the experimental part:
Comparison of Solubility between DTC and Hydrocarbon link. […] OD values were measured at 600 nm on a Biotech Synergy 4 plate reader. PBS was set as blank control.

A short description of series [2]: Circular dichroism spectroscopy, percent α-helix. It is filed as physicochemical. The following applies: CD spectroscopy. An excerpt:
Circular Dichroism (CD) Spectroscopy.
On the technique in general: CD spectra are sensitive to the conformation of chiral molecules.

For a further series, the system named is HCT116 p53^+/+. The series can be described thus: Cell viability assay (CCK8), HCT116 p53+/+. Type of series: cell-based, human. The following applies: concentrations of up to 50 μM.
The test system of the next series is HCT116 p53^−/−. The series is described as follows: Cell viability assay (CCK8), HCT116 p53-/-. Type of series: cell-based, human.
For series [3], the system named is HCT116 p53^+/+ cells. The series can be described thus: Cellular uptake by confocal microscopy. It is filed as cell-based, human. Conditions: FITC-labeled peptide, 20 μM, 4 h. As for the experimental part: Cellular uptake of ^DTCPMI. […] Cells were then incubated with 20 μM FITC-^DTCPMI Ctrl. or FITC-^DTCPMI for 4 h. Cells were washed with Dulbecco's phosphate buffered saline, fixed with 4% (wt/vol) paraformaldehyde, finally incubated by DAPI to stain the cell nucleus. Imaged using an LSM 510 Zeiss Axiovert 200M (v4.0) confocal microscope. Images were analyzed using an LSM image browser.

Series [4] has as its system p53, MDM2 and p21 in HCT116 p53^+/+ cells. The series is described as follows: Western blot analysis of MDM2, p21 and p53 expression. Type of series: cell-based, human. The following applies: 8 h after treatment, 10, 20, 30 μM. As for the experimental part:
Western Blot Analysis. […] The cells were lysed (20 mM Tris-HCl pH 8.0, 0.8% SDS, 1 mM PMSF, 1 U mL^−1 benzonase nuclease) and the crude lysates were clarified by brief centrifugation and total protein concentration was determined by using the Pierce BCA protein assay. Aliquots containing 5 μg of total protein were run on 4-12% Bis-Tris polyacrylamide gels (Invitrogen).

The test system of series [5] is HCT116 p53^+/+ cells. The series is described as follows: Cell apoptosis assay (annexin V-FITC/PI flow cytometry), HCT116 p53+/+. Type of series: cell-based, human. Conditions: 10, 20, or 30 μM. As to the method:
(§1) Cell Apoptosis Assay. […] No treatment controls were established. Culture medium that may contain detached cells was collected, and attached cells were trypsinized. After centrifugation and removal of the supernatants, cells were resuspended in 300 μL of 1×binding buffer which was then added to 5 μL of annexin V-FITC and incubated at room temperature for 15 min. After addition of 10 μL of PI, the cells were incubated at room temperature for another 10 min in the dark. The stained cells were analyzed by a flow cytometer (BD-FACSVerse).
(In general: A flow cytometer gives signals particle by particle.)

The subject of the next series is HCT116 p53^−/− cells. The series is described as follows: Cell apoptosis assay (annexin V-FITC/PI flow cytometry), HCT116 p53-/-. The following applies: identical treatment conditions, 10, 20, or 30 μM. Type of series: cell-based, human. As to the method: as §1

Where a SMILES comes first, the peptide text is derived from it. Bridges are numbered along the chain shown (N, C = ends). [ ]: non-standard residue; d: D form. S5 = C=CCCC[C@](C)(N)C(=O)O Some results are limits rather than exact numbers.

Broadly, the solubility is the concentration that dissolves in the medium under given conditions. Turning to `CC(=O)N[C@H](C(=O)N[C@@H](CO)C(=O)N[C@@H](Cc1ccccc1)C(=O)N[C@@]1(C)CCCC=CCCC[C@@](C)(C(=O)N[C@@H](CC(C)C)C(=O)N[C@@H](CC(C)C)C(=O)N[C@@H](CO)C(=O)N[C@@H](CCCNC(=N)N)C(N)=O)NC(=O)[C@H](Cc2c[nH]c3ccccc23)NC(=O)[C@H](Cc2ccc(O)cc2)NC(=O)[C@H](CCC(N)=O)NC1=O)[C@@H](C)O` [^HCPMI] (Ac-TSF[S5]QYW[S5]LLSR-NH2; staple 4-8), in series [1], the solubility is no less than 300 µg/mL.

Take `CC(=O)N[C@H](C(=O)N[C@@H](CO)C(=O)N[C@@H](Cc1ccccc1)C(=O)N[C@@H](CCCCN)C(=O)N[C@@H](CCC(N)=O)C(=O)N[C@@H](Cc1ccc(O)cc1)C(=O)N[C@@H](Cc1c[nH]c2ccccc12)C(=O)N[C@@H](CS)C(=O)N[C@@H](CC(C)C)C(=O)N[C@@H](CC(C)C)C(=O)N[C@@H](CO)C(=O)N[C@@H](CCCNC(=N)N)C(N)=O)[C@@H](C)O` [^DTCPMI Ctrl., reference compound]: the “α-helix (%)” value in series [2] (Table 7) stood at 16.6%. In the series on HCT116 p53^+/+, the “anti-proliferative activity against HCT116 p53+/+” value was “no anti-proliferative activity”. Also, the “anti-proliferative activity against HCT116 p53-/-” value in the series on HCT116 p53^−/− (concentrations of up to 50 μM) is recorded as “no anti-proliferative activity”. Moreover, in the series on HCT116 p53^+/+ cells [3], the “intracellular localization / cellular uptake (confocal microscopy)” value is given as “diffused intracellular localization, demonstrating efficient cellular uptake”.

Turning to `CC(=O)N[C@H](C(=O)N[C@@H](CO)C(=O)N[C@@H](Cc1ccccc1)C(=O)N[C@H]1CCCCNC(=S)SC[C@@H](C(=O)N[C@@H](CC(C)C)C(=O)N[C@@H](CC(C)C)C(=O)N[C@@H](CO)C(=O)N[C@@H](CCCNC(=N)N)C(N)=O)NC(=O)[C@H](Cc2c[nH]c3ccccc23)NC(=O)[C@H](Cc2ccc(O)cc2)NC(=O)[C@H](CCC(N)=O)NC1=O)[C@@H](C)O` [^DTCPMI], the “α-helix (%)” value in series [2] (Table 3) was found to be 76%; in series [2] (Table 7) it was 62.2%. For the same compound, the “induction of p53, MDM2 and p21 (Western blotting)” value in series [4] was “dose-dependent induction of p53, MDM2 and p21”. Moreover, in the series with HCT116 p53^+/+ cells [5], the “induction of apoptosis of HCT116 p53+/+ cells (FACS)” value is on record as “dose-dependent induction of apoptosis”. In the series with HCT116 p53^−/− cells, the “apoptosis of HCT116 p53-/- cells (FACS)” value is recorded as “no obvious apoptosis”. The “cell viability of HCT116 p53-/- cells at high concentration” value in the series on HCT116 p53^−/− (100 μM) is “significantly reduced cell viability”. Also, the “intracellular localization / cellular uptake (confocal microscopy)” value with HCT116 p53^+/+ cells [3] is recorded as “diffused intracellular localization, demonstrating efficient cellular uptake”.
